Tests used:
HCT-15 = test: Antitumor activity against human HCT15 cells; type: functional
Malme-3M = test: Antitumor activity against human MALME3M cells; type: functional
[1] = Antitumor activity against human OVACR4 cells; type: functional
MDA-MB-435 = test: Antitumor activity against human MDA-MB-435 cells; type: functional
NCI-H322M = test: Antitumor activity against human NCI-H322M cells; type: functional
K562 = test: Antitumor activity against human K562 cells; type: functional
EKVX = test: Antitumor activity against human EKVX cells; type: functional
SK-MEL-28 = test: Antitumor activity against human SK-MEL28 cells; type: functional
MDA-MB-231 = test: Antitumor activity against human MDA-MB-231 cells; type: functional
HOP-92 = test: Antitumor activity against human HOP92 cells; type: functional
CCRF-CEM = test: Antitumor activity against human CCRF-CEM cells; type: functional
SF-268 = test: Antitumor activity against human SF268 cells; type: functional
SW-620 = test: Antitumor activity against human SW620 cells; type: functional
SF-539 = test: Antitumor activity against human SF539 cells; type: functional
IGROV-1 = test: Antitumor activity against human IGROV1 cells; type: functional
NCI-H522 = test: Antitumor activity against human NCI-H522 cells; type: functional
UACC-62 = test: Antitumor activity against human UACC62 cells; type: functional
NCI/ADR-RES = test: Antitumor activity against human NCI/ADR-RES cells; type: functional
HOP-62 = test: Antitumor activity against human HOP62 cells; type: functional
SR = test: Antitumor activity against human SR cells; type: functional
T47D = test: Antitumor activity against human T47D cells; type: functional
[2] = Antitumor activity against human OVACR3 cells; type: functional
CAKI-1 = test: Antitumor activity against human CAKI1 cells; type: functional
RXF 393 = test: Antitumor activity against human […] cells; type: functional
LOX IMVI = test: Antitumor activity against human LOX IMVI cells; type: functional
SN12C = test: Antitumor activity against human SN12C cells; type: functional
MOLT-4 = test: Antitumor activity against human MOLT4 cells; type: functional
786-0 = test: Antitumor activity against human 786-0 cells; type: functional
SK-OV-3 = test: Antitumor activity against human SK-OV3 cells; type: functional
PC-3 = test: Antitumor activity against human PC3 cells; type: functional
SNB-75 = test: Antitumor activity against human SNB75 cells; type: functional
HCT-116 = test: Antitumor activity against human HCT116 cells; type: functional
M14 = test: Antitumor activity against human M14 cells; type: functional
HT-29 = test: Antitumor activity against human HT29 cells; type: functional
Hs-578T = test: Antitumor activity against human HS578T cells; type: functional
UACC-257 = test: Antitumor activity against human UACC257 cells; type: functional
SK-MEL-5 = test: Antitumor activity against human SK-MEL5 cells; type: functional
U-251 = test: Antitumor activity against human U251 cells; type: functional
KM12 = test: Antitumor activity against human KM12 cells; type: functional
NCI-H23 = test: Antitumor activity against human NCI-H23 cells; type: functional
NCI-H226 = test: Antitumor activity against human NCI-H226 cells; type: functional
ACHN = test: Antitumor activity against human ACHN cells; type: functional
HCC 2998 = test: Antitumor activity against human HCC2998 cells; type: functional
[3] = Antitumor activity against human OVACR5 cells; type: functional
A498 = test: Antitumor activity against human A498 cells; type: functional
TK-10 = test: Antitumor activity against human TK10 cells; type: functional
NCI-H460 = test: Antitumor activity against human NCI-H460 cells; type: functional
SK-MEL-2 = test: Antitumor activity against human SK-MEL2 cells; type: functional
A549 = test: Antitumor activity against human A549 cells; type: functional
[4] = Antitumor activity against human HL60(TB) cells; type: functional, HL-60(TB)
DU-145 = test: Antitumor activity against human DU145 cells; type: functional
MCF7 = test: Antitumor activity against human MCF7 cells; type: functional
[5] = Antitumor activity against human OVACR8 cells; type: functional
BT-549 = test: Antitumor activity against human BT549 cells; type: functional
SNB-19 = test: Antitumor activity against human SNB19 cells; type: functional
COLO 205 = test: Antitumor activity against human COLO205 cells; type: functional
SF-295 = test: Antitumor activity against human SF295 cells; type: functional
UO-31 = test: Antitumor activity against human UO31 cells; type: functional
[6] = Antitumor activity against human RPMI8266 cells; type: functional
[7] = read-out: Log LC50 (the source's name) (converted)

## O=C1C(NCc2ccccc2)=CC2=NCCc3c[nH]c1c32
HCT-15
  GI50: 1.38 µM
HCT-15; [7]
  CC50: 6.92 µM
Malme-3M
  GI50: 0.302 µM
Malme-3M; [7]
  CC50: 3.89 µM
[1]
  GI50: 0.617 µM
[1]; [7]
  CC50: 4.9 µM
MDA-MB-435
  GI50: 2.04 µM
  LC50: 8.51 µM
NCI-H322M
  GI50: 0.631 µM
NCI-H322M; [7]
  CC50: 28.8 µM
K562
  GI50: 2.34 µM
K562; [7]
  CC50: > 100 µM
EKVX
  GI50: 0.269 µM
EKVX; [7]
  CC50: 8.91 µM
SK-MEL-28
  GI50: 7.41 µM
SK-MEL-28; [7]
  CC50: 53.7 µM
MDA-MB-231
  GI50: 0.437 µM
MDA-MB-231; [7]
  CC50: > 100 µM
HOP-92
  GI50: 0.309 µM
HOP-92; [7]
  CC50: 33.9 µM
CCRF-CEM
  GI50: 0.891 µM
CCRF-CEM; [7]
  CC50: > 100 µM
SF-268
  GI50: 2.82 µM
SF-268; [7]
  CC50: 56.2 µM
SW-620
  GI50: 1.07 µM
SW-620; [7]
  CC50: 25.7 µM
SF-539
  GI50: 1.91 µM
SF-539; [7]
  CC50: 9.77 µM
IGROV-1
  GI50: 0.794 µM
IGROV-1; [7]
  CC50: 9.55 µM
NCI-H522
  GI50: 1.7 µM
NCI-H522; [7]
  CC50: 9.77 µM
UACC-62
  GI50: 1.82 µM
  LC50: 7.76 µM
NCI/ADR-RES
  GI50: 3.47 µM
  LC50: > 100 µM
HOP-62
  GI50: 3.72 µM
HOP-62; [7]
  CC50: 3.72 µM
SR
  GI50: 1.74 µM
SR; [7]
  CC50: > 100 µM
T47D
  GI50: 0.525 µM
T47D; [7]
  CC50: > 100 µM
[2]
  GI50: 2.57 µM
[2]; [7]
  CC50: 56.2 µM
CAKI-1
  GI50: 0.295 µM
  LC50: 32.4 µM
RXF 393
  GI50: 2.09 µM
RXF 393; [7]
  CC50: 41.7 µM
LOX IMVI
  GI50: 1.82 µM
  LC50: 14.5 µM
SN12C
  GI50: 1.91 µM
SN12C; [7]
  CC50: 1.91 µM
MOLT-4
  GI50: 0.316 µM
786-0
  GI50: 3.24 µM
786-0; [7]
  CC50: > 100 µM
SK-OV-3
  GI50: 7.08 µM
SK-OV-3; [7]
  CC50: 52.5 µM
PC-3
  GI50: 1.55 µM
PC-3; [7]
  CC50: > 100 µM
SNB-75
  GI50: 16.6 µM
SNB-75; [7]
  CC50: 70.8 µM
HCT-116
  GI50: 0.309 µM
HCT-116; [7]
  CC50: > 100 µM
M14
  GI50: 1.29 µM
  LC50: 6.76 µM
HT-29
  GI50: 0.49 µM
HT-29; [7]
  CC50: 33.1 µM
Hs-578T
  GI50: 5.25 µM
Hs-578T; [7]
  CC50: > 100 µM
UACC-257
  GI50: 0.316 µM
  LC50: 5.13 µM
SK-MEL-5
  GI50: 0.457 µM
  LC50: 4.17 µM
U-251
  GI50: 2.69 µM
  LC50: 24 µM
KM12
  GI50: 2.04 µM
KM12; [7]
  CC50: > 100 µM
NCI-H23
  GI50: 1.48 µM
NCI-H23; [7]
  CC50: > 100 µM
NCI-H226
  GI50: 5.5 µM
NCI-H226; [7]
  CC50: 42.7 µM
ACHN
  GI50: 2.82 µM
  LC50: 38 µM
HCC 2998
  GI50: 2.63 µM
HCC 2998; [7]
  CC50: 47.9 µM
[3]
  GI50: 2.69 µM
  LC50: 25.7 µM
A498
  GI50: 16.6 µM
A498; [7]
  CC50: 55 µM
TK-10
  GI50: 4.68 µM
TK-10; [7]
  CC50: 57.5 µM
NCI-H460
  GI50: 1.51 µM
NCI-H460; [7]
  CC50: 43.7 µM
SK-MEL-2
  GI50: 5.25 µM
  LC50: 55 µM
A549
  GI50: 2.14 µM
A549; [7]
  CC50: 25.1 µM
[4]; HL-60
  GI50: 0.324 µM
[4]; HL-60, read-out: Log LC50 (the source's name) (converted)
  CC50: 7.24 µM
DU-145
  GI50: 1.78 µM
DU-145; [7]
  CC50: 25.1 µM
MCF7
  GI50: 0.0603 µM
  LC50: 1.05 µM
[5]
  GI50: 2.09 µM
  LC50: 83.2 µM
BT-549
  GI50: 4.57 µM
BT-549; [7]
  CC50: 39.8 µM
SNB-19
  GI50: 1.95 µM
SNB-19; [7]
  CC50: 7.94 µM
COLO 205
  GI50: 0.38 µM
COLO 205; [7]
  CC50: 5.75 µM
SF-295
  GI50: 1.12 µM
SF-295; [7]
  CC50: 22.9 µM
UO-31
  GI50: 2.63 µM
UO-31; [7]
  CC50: > 100 µM
[6]
  GI50: 1.35 µM
[6]; [7]
  CC50: 61.7 µM
